{"source": "patent US7030087B2", "about": "“Synthetic approach to designed chemical structures” (priority 1996, dated 2006)", "key": {"EC (endothelial cells)": {"system": "EC (endothelial cells)", "test": "EC proliferation, 3[H]thymidine incorporation assay", "format": "cell-based", "description": "Since the in vivo situation of tumor associated EC involves the low expression or even absence of ICAM-1, the next set of experiments aimed to study the ability to reinduce ICAM-I expression after bFBF preincubation. […] In these experiments, HUVEC were pretreated for 3 days with bFGF, subsequently PF4 was added for 3 days and, where indicated in the last 16 hours of culture 4 ng/ml TNFα was added. Human umbilical vein derived endothelial cells (HUVEC) were harvested from normal human umbilical cords by perfusion with 0.125% trypsin/EDTA as described previously. Cells were cultured in fibronectin (FN) coated tissue culture flasks in culture medium (RPMI-1640 with 20% human serum (HS), supplemented with 2 mM glutamine and 100 U/ml penicillin and 0.1 mg/ml streptomycin). Immunofluorescence using indirect PE-conjugated reagents required three separate incubations. 1×10^5 EC were fixed for 1 hour in 1% paraformaldehyde, resuspended in 20 μl appropriately diluted Mab and incubated for 1 hour on ice. Subsequently, cells were washed two times in PBS/BSA (0.1%) and incubated for another 30 minutes with biotinylated rabbit-anti-mouse Ig (Dako, Glostrup, Denmark). After another 2 washings, cells were incubated with streptavidin-phycoerythrin conjugate (Dako). Stained cells were analyzed on a FACScan flowcytometer. Data analysis was performed using PCLysys software (Becton Dickinson, Mountain View, Calif.). Statistical significance of observed differences was determined using the Student's t-test.\nEC proliferation was measured using a ^3[H]thymidine incorporation assay. EC were seeded in flatbottomed 96-well tissue culture plates (5000 cells/well) and grown for 3 days, in culture medium. In some cultures the proliferation of EC was enhanced by incubation with 10 ng/ml bFGF. During the list 6 hours of the assay, the culture was pulsed with 0.5 μCi [methyl-^3H]thymidine/well. Results are expressed as the arithmetic mean counts per minute (cpm) of triplicate cultures."}, "[1]": {"system": "endotoxin from E. coli 055:B5", "test": "Limulus amoebocyte lysate assay (E-TOXATE), endotoxin neutralization", "format": "biochemical", "outline": "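Peptide preincubated with LPS 5 min at room temperature in 1:2 pyrogen-free saline (pH 6.4), then amoebocyte lysate added (E-TOXATE kit). Neutralization of endotoxin activity scored by Limulus lysate reaction; BG38L served as positive control.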"}}}
{"substance": "platelet factor 4 [PF4]", "values": [{"measurement": "(3H)-thymidine incorporation", "setting": "EC (endothelial cells); expt 1, 1 μg/ml, 10 ng/ml bFGF, medium 28815 ± 1007", "result": "28782 ± 815", "unit": "cpm"}, {"measurement": "(3H)-thymidine incorporation", "setting": "EC (endothelial cells); expt 1, 1 μg/ml, no bFGF, medium 4044 ± 206", "result": "4656 ± 456", "unit": "cpm"}, {"measurement": "(3H)-thymidine incorporation", "setting": "EC (endothelial cells); expt 1, 10 μg/ml, 10 ng/ml bFGF, medium 28815 ± 1007", "result": "23868 ± 402", "unit": "cpm"}, {"measurement": "(3H)-thymidine incorporation", "setting": "EC (endothelial cells); expt 1, 10 μg/ml, no bFGF, medium 4044 ± 206", "result": "4066 ± 351", "unit": "cpm"}, {"measurement": "(3H)-thymidine incorporation", "setting": "EC (endothelial cells); expt 1, 100 μg/ml, 10 ng/ml bFGF, medium 28815 ± 1007", "result": "4655 ± 421", "unit": "cpm"}, {"measurement": "(3H)-thymidine incorporation", "setting": "EC (endothelial cells); expt 1, 100 μg/ml, no bFGF, medium 4044 ± 206", "result": "1651 ± 172", "unit": "cpm"}, {"measurement": "(3H)-thymidine incorporation", "setting": "EC (endothelial cells); expt 2 (second, r19), 1 μg/ml, 10 ng/ml bFGF, medium 52808 ± 4092", "result": "43524 ± 5318", "unit": "cpm"}, {"measurement": "(3H)-thymidine incorporation", "setting": "EC (endothelial cells); expt 2 (second, r19), 1 μg/ml, no bFGF, medium 6780 ± 713", "result": "6171 ± 1227", "unit": "cpm"}, {"measurement": "(3H)-thymidine incorporation", "setting": "EC (endothelial cells); expt 2 (second, r19), 10 μg/ml, 10 ng/ml bFGF, medium 52808 ± 4092", "result": "8337 ± 704", "unit": "cpm"}, {"measurement": "(3H)-thymidine incorporation", "setting": "EC (endothelial cells); expt 2 (second, r19), 10 μg/ml, no bFGF, medium 6780 ± 713", "result": "3547 ± 317", "unit": "cpm"}, {"measurement": "(3H)-thymidine incorporation", "setting": "EC (endothelial cells); expt 2 (second, r19), 100 μg/ml, 10 ng/ml bFGF, medium 52808 ± 4092", "result": "1654 ± 375", "unit": "cpm"}, {"measurement": "(3H)-thymidine incorporation", "setting": "EC (endothelial cells); expt 2 (second, r19), 100 μg/ml, no bFGF, medium 6780 ± 713", "result": "947 ± 170", "unit": "cpm"}, {"measurement": "endotoxin neutralizing activity (in words)", "setting": "[1]", "result": "no endotoxin neutralizing activity"}, {"measurement": "Endotoxin Neutralizing Activity, % neutralization", "setting": "[1]; 5.0 × 10^−5 M peptide, 0.02 U (0.2 pg) endotoxin from E. coli 055:B5, Table 3", "result": 0, "unit": "%"}, {"measurement": "Endotoxin Neutralization, % neutralization", "setting": "[1]; 5.0 × 10^−6 M Peptide, 0.02 U (0.2 pg) endotoxin from E. coli 055:B5, Table 4", "result": 0, "unit": "%"}, {"measurement": "Endotoxin Neutralization, % at the effective dose", "setting": "[1]; Table 3, at the ED printed in the same cell", "result": 23, "unit": "%"}, {"measurement": "Endotoxin neutralization, ED, Effective M dose", "setting": "[1]; Table 3, dose at which the % in brackets was found", "result": 50, "unit": "µM"}, {"measurement": "Endotoxin Neutralization, % at the effective dose", "setting": "[1]; Table 4, at the Ed", "result": 0, "unit": "%"}, {"measurement": "Endotoxin Neutralization, Ed, Effective M dose", "setting": "[1]; Table 4, dose at which the % in brackets was found", "result": 50, "unit": "µM"}]}
